Measurements: PubChem BioAssay (NCI)
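1) Cells in 96-well plates. 2) Compound, 48 h, 5 concentrations. 3) Linear interpolation between surrounding doses. 4) Unreached endpoint = highest concentration. GI50 = concentration required for 50% inhibition of growth. The concentration for full growth arrest is given as TGI.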

Key:
Test in all cases: NCI-60 cell line screen, 48 h
[1] = tested on: NCI-H226 lung
[2] = tested on: KM12 colon
[3] = tested on: A549 NSCLC
[4] = tested on: HCC-2998 colon
[5] = tested on: TK-10 renal
[6] = tested on: MALME-3M melanoma
[7] = tested on: SK-MEL-2 melanoma
[8] = tested on: SF-268 CNS
[9] = tested on: UACC-257 melanoma
[10] = tested on: M14 melanoma

SMILES | GI50 [1] [µM] | TGI [1] [µM] | GI50 [2] [µM] | TGI [2] [µM] | GI50 [3] [µM] | TGI [3] [µM] | GI50 [4] [µM] | TGI [4] [µM] | GI50 [5] [µM] | TGI [5] [µM] | GI50 [6] [µM] | TGI [6] [µM] | GI50 [7] [µM] | TGI [7] [µM] | GI50 [8] [µM] | TGI [8] [µM] | GI50 [9] [µM] | TGI [9] [µM] | GI50 [10] [µM] | TGI [10] [µM]
Cc1ccc(Nc2nc(NCCO)c3ccccc3n2)cc1C | 10.8 | 22.7 | 8.06 | 20.5 | 5.4 | 22.7 | 2.44 | 5.96 | 11.1 | 23.3 | 1.85 | 3.77 | 11.3 | 24 | 9.27 | 22.2 | 2.14 | 7.37 |  | 
CCCCCCCCCCCCN1C(C)=CS/C1=C\C=C\c1scc(C)[n+]1CCCCCCCCCCCC | 2.34 | > 100 |  |  |  |  | 2.11 | 11 | 0.934 | 3.9 |  |  |  |  | 1.98 | 5.7 | 1.72 | 5.68 | 1.34 | 4.61
CCCc1c2c([nH]c(=O)c1C)C(=O)c1[nH]c(=O)c(C)c(CCC)c1C2=O |  | > 100 |  |  |  | 72.7 |  | > 100 |  | > 100 |  | 22.2 |  |  |  | 87.4 |  | 6.99 |  | 17.3
OCCN(CCO)N=Nc1ccc(-c2nc3ccccc3[nH]2)cc1 | > 100 | > 100 | 16.3 | 55.4 | 44.9 | > 100 |  |  | 36.1 | > 100 |  |  | 41.2 | > 100 | 3.31 | 40.5 | 33.2 | > 100 | 46.4 | > 100
CC(O)C1OC(O)C2OC(C)(C)OC12 (stereo not drawn) |  | > 100 |  | > 100 |  | > 100 |  |  |  | > 100 |  |  |  | > 100 |  | > 100 |  | > 100 |  | > 100
O=C(Nc1ccc(Cl)c(C(F)(F)F)c1)C(=O)C(C(=O)/C=C/c1ccccc1)C1OC(=O)c2ccccc21 (stereo not drawn) |  | > 100 |  | > 100 |  | > 100 |  | > 100 |  | > 100 |  | > 100 |  |  |  | > 100 |  | > 100 |  | > 100
Cc1ccc(C)c(NC(=O)C(=O)C2C(=O)C3=C(CC2(C)C)Nc2ccccc2S3)c1 (stereo not drawn) |  | > 100 |  | > 100 |  | > 100 |  | > 100 |  | > 100 |  |  |  | > 100 |  | > 100 |  | > 100 |  | > 100
CC(=O)N1CCC2(C=Nc3ccccc32)CC1 |  |  |  | > 100 |  | > 100 |  | > 100 |  | > 100 |  | > 100 |  | > 100 |  |  |  | > 100 |  | > 100
CC[C@@H]1C[C@@H]2CN3CCc4c([nH]c5ccc(OC)cc45)C(COC(=O)c4ccc(OC)c(OC)c4)(C2)C13 |  | 33.8 |  | > 100 |  | > 100 |  | 55.4 |  | 97.2 |  |  |  |  |  | > 100 |  | 37.8 |  | 41.8
CC(C)(C)[OH+][O-].[O-]c1ccc(Cl)cc1C=Nc1ccc(Cl)cc1[O-].[O]=[V] |  |  | 10.8 | 32 | 17.1 | > 100 | 11.2 | 25.7 | 13.8 | 73.7 | 1.81 | 11.9 | 11.5 | 28.2 | 23.7 | 69.3 | 13.9 | 36.4 | 13.3 | 76.2
CSC(=S)c1ccc(C(=S)SC)cc1 |  | > 100 |  | > 100 |  | > 100 |  | > 100 |  | > 100 |  | > 100 |  |  |  | > 100 |  | > 100 |  | > 100
O=C(Nc1ccc(S(=O)(=O)Nc2nccs2)cc1)c1cccnc1Nc1cccc(Cl)c1 | 21.9 | 98.7 | 10.3 | 22.9 | 15.3 | 39.8 | 14.1 | 27.9 | 22.8 | 51.1 | 16.9 | 48.1 |  |  | 12.8 | 31.5 | 18.8 | 43.6 | 15.7 | 34.9
Cc1ccc(S(=O)(=O)N/N=C(\CCN2CCCC2)CC(c2ccccc2)c2c(O)c3ccccc3oc2=O)cc1 (stereo not drawn) |  | > 100 |  | > 100 |  | > 100 |  |  |  | > 100 |  | > 100 |  | > 100 |  | > 100 |  | > 100 |  | > 100
Cc1ccc(NC(=O)c2[nH]c(=S)nc(N)c2-c2ccccc2C)cc1C |  | > 100 |  | > 100 |  | > 100 |  |  |  | > 100 |  | > 100 |  | > 100 |  | > 100 |  | > 100 |  | > 100
CN(C)CCNC(=O)c1ccc(Nc2nc3ccccc3c3occc23)cc1 |  |  | 1.89 | 4.15 | 4.08 | 16.1 | 1.62 | 3.07 | 1.06 | 2.54 |  |  | 9.71 | 26.6 | 63.7 | > 100 |  |  | 1.7 | 3.15
